Legend:
CCRF-CEM = assay: NCI60 one-dose screen (10 μM), Leukemia; type: cell-based; conditions: Homo sapiens, 10 μM, Leukemia, read-out: Growth percent rate
HL-60(TB) = assay: NCI60 one-dose screen (10 μM), Leukemia; type: cell-based; conditions: Homo sapiens; 10 μM; HL-60(TB), Leukemia; read-out: Growth percent rate
K-562 = assay: NCI60 one-dose screen (10 μM), Leukemia; type: cell-based; conditions: Homo sapiens, K562; 10 μM; K-562, Leukemia; read-out: Growth percent rate
MOLT-4 = assay: NCI60 one-dose screen (10 μM), Leukemia; type: cell-based, human; conditions: Homo sapiens; 10 μM; MOLT-4, Leukemia; read-out: Growth percent rate
A549/ATCC = assay: NCI60 one-dose screen (10 μM), Non-small Cell Lung Cancer; type: cell-based; conditions: Homo sapiens; 10 μM; A549/ATCC, Non-small Cell Lung Cancer; read-out: Growth percent rate
EKVX = assay: as above; type: cell-based; conditions: Homo sapiens, 10 μM, Non-small Cell Lung Cancer, read-out: Growth percent rate
NCI-H23 = assay: as above; type: cell-based; conditions: Homo sapiens; 10 μM; NCI-H23, Non-small Cell Lung Cancer; read-out: Growth percent rate
NCI-H322M = assay: as above; type: cell-based; conditions: Homo sapiens, 10 μM, Non-small Cell Lung Cancer, read-out: Growth percent rate
NCI-H460 = assay: as above; type: cell-based; conditions: Homo sapiens; 10 μM; NCI-H460, Non-small Cell Lung Cancer; read-out: Growth percent rate
NCI-H522 = assay: as above; type: cell-based; conditions: Homo sapiens; 10 μM; NCI-H522, Non-small Cell Lung Cancer; read-out: Growth percent rate
COLO 205 = assay: NCI60 one-dose screen (10 μM), Colon Cancer; type: cell-based, human; conditions: Homo sapiens; 10 μM; COLO 205, Colon Cancer; read-out: Growth percent rate
HCC-2998 = assay: NCI60 one-dose screen (10 μM), Colon Cancer; type: cell-based; conditions: Homo sapiens; 10 μM; HCC-2998, Colon Cancer; read-out: Growth percent rate
HCT-116 = assay: NCI60 one-dose screen (10 μM), Colon Cancer; type: cell-based; conditions: Homo sapiens; 10 μM; HCT-116, Colon Cancer; read-out: Growth percent rate
HCT-15 = assay: NCI60 one-dose screen (10 μM), Colon Cancer; type: cell-based; conditions: Homo sapiens; 10 μM; HCT-15, Colon Cancer; read-out: Growth percent rate
HT29 = assay: NCI60 one-dose screen (10 μM), Colon Cancer; type: cell-based; conditions: Homo sapiens, HT-29; 10 μM; HT29, Colon Cancer; read-out: Growth percent rate
KM12 = assay: NCI60 one-dose screen (10 μM), Colon Cancer; type: cell-based, human; conditions: Homo sapiens; 10 μM; KM12, Colon Cancer; read-out: Growth percent rate
SW-620 = assay: NCI60 one-dose screen (10 μM), Colon Cancer; type: cell-based; conditions: Homo sapiens; 10 μM; SW-620, Colon Cancer; read-out: Growth percent rate
SF-268 = assay: NCI60 one-dose screen (10 μM), CNS Cancer; type: cell-based; conditions: Homo sapiens; 10 μM; SF-268, CNS Cancer; read-out: Growth percent rate
SF-295 = assay: NCI60 one-dose screen (10 μM), CNS Cancer; type: cell-based; conditions: Homo sapiens; 10 μM; SF-295, CNS Cancer; read-out: Growth percent rate
SF-539 = assay: NCI60 one-dose screen (10 μM), CNS Cancer; type: cell-based, human; conditions: Homo sapiens; 10 μM; SF-539, CNS Cancer; read-out: Growth percent rate
SNB-19 = assay: NCI60 one-dose screen (10 μM), CNS Cancer; type: cell-based; conditions: Homo sapiens; 10 μM; SNB-19, CNS Cancer; read-out: Growth percent rate
SNB-75 = assay: NCI60 one-dose screen (10 μM), CNS Cancer; type: cell-based, human; conditions: Homo sapiens; 10 μM; SNB-75, CNS Cancer; read-out: Growth percent rate
LOX IMVI = assay: NCI60 one-dose screen (10 μM), Melanoma; type: cell-based, human; conditions: Homo sapiens; 10 μM; LOX IMVI, Melanoma; read-out: Growth percent rate
MALME-3M = assay: NCI60 one-dose screen (10 μM), Melanoma; type: cell-based; conditions: Homo sapiens; 10 μM; MALME-3M, Melanoma; read-out: Growth percent rate
M14 = assay: NCI60 one-dose screen (10 μM), Melanoma; type: cell-based; conditions: Homo sapiens; 10 μM; M14, Melanoma; read-out: Growth percent rate
MDA-MB-435 = assay: NCI60 one-dose screen (10 μM), Melanoma; type: cell-based; conditions: Homo sapiens; 10 μM; MDA-MB-435, Melanoma; read-out: Growth percent rate
SK-MEL-2 = assay: NCI60 one-dose screen (10 μM), Melanoma; type: cell-based; conditions: Homo sapiens; 10 μM; SK-MEL-2, Melanoma; read-out: Growth percent rate
SK-MEL-28 = assay: NCI60 one-dose screen (10 μM), Melanoma; type: cell-based; conditions: Homo sapiens; 10 μM; SK-MEL-28, Melanoma; read-out: Growth percent rate
SK-MEL-5 = assay: NCI60 one-dose screen (10 μM), Melanoma; type: cell-based, human; conditions: Homo sapiens; 10 μM; SK-MEL-5, Melanoma; read-out: Growth percent rate
UACC-257 = assay: NCI60 one-dose screen (10 μM), Melanoma; type: cell-based; conditions: Homo sapiens; 10 μM; UACC-257, Melanoma; read-out: Growth percent rate
IGROV1 = assay: NCI60 one-dose screen (10 μM), Ovarian Cancer; type: cell-based; conditions: Homo sapiens, IGROV-1; 10 μM; IGROV1, Ovarian Cancer; read-out: Growth percent rate
OVCAR-3 = assay: NCI60 one-dose screen (10 μM), Ovarian Cancer; type: cell-based; conditions: Homo sapiens; 10 μM; OVCAR-3, Ovarian Cancer; read-out: Growth percent rate
OVCAR-4 = assay: NCI60 one-dose screen (10 μM), Ovarian Cancer; type: cell-based; conditions: Homo sapiens; 10 μM; OVCAR-4, Ovarian Cancer; read-out: Growth percent rate
OVCAR-8 = assay: NCI60 one-dose screen (10 μM), Ovarian Cancer; type: cell-based; conditions: Homo sapiens; 10 μM; OVCAR-8, Ovarian Cancer; read-out: Growth percent rate
786–0 = assay: NCI60 one-dose screen (10 μM), Renal Cancer; type: cell-based; conditions: Homo sapiens; 10 μM; 786-0, Renal Cancer; read-out: Growth percent rate
ACHN = assay: NCI60 one-dose screen (10 μM), Renal Cancer; type: cell-based; conditions: Homo sapiens, 10 μM, Renal Cancer, read-out: Growth percent rate
CAKI-1 = assay: NCI60 one-dose screen (10 μM), Renal Cancer; type: cell-based; conditions: Homo sapiens; 10 μM; CAKI-1, Renal Cancer; read-out: Growth percent rate
RXF 393 = assay: NCI60 one-dose screen (10 μM), Renal Cancer; type: cell-based, human; conditions: Homo sapiens; 10 μM; RXF 393, Renal Cancer; read-out: Growth percent rate
SN12C = assay: NCI60 one-dose screen (10 μM), Renal Cancer; type: cell-based; conditions: Homo sapiens, 10 μM, Renal Cancer, read-out: Growth percent rate
DU-145 = assay: NCI60 one-dose screen (10 μM), Prostate Cancer; type: cell-based; conditions: Homo sapiens; 10 μM; DU-145, Prostate Cancer; read-out: Growth percent rate
MCF7 = assay: NCI60 one-dose screen (10 μM), Breast Cancer; type: cell-based; conditions: Homo sapiens; 10 μM; MCF7, Breast Cancer; read-out: Growth percent rate
[1] = system: 60 human tumor cell lines (NCI60); assay: NCI60 one-dose screen (10 μM), whole panel; type: cell-based; conditions: 10 μM; mean over 60 human cancer cell lines; read-out: Growth percent rate, Mean

`CC[C@]12C=CCN3CC[C@@]4(c5ccc(OC)cc5N(C)[C@H]4[C@@](O)(C(=O)OC)[C@@H]1OC(=O)CCCN1CCN(Cc4ccc(F)cc4)CC1)[C@@H]32` [Compound 24] gave an activity at 10 µM (CCRF-CEM) of 12.7%, an activity at 10 µM (HL-60(TB)) of 7.68% and an activity at 10 µM (K-562) of 0.4%. For the same compound, the activity at 10 µM (MOLT-4) was 6.28%, the activity at 10 µM (A549/ATCC) was 51.2% and the activity at 10 µM (EKVX) was 40.3%. The activity at 10 µM (NCI-H23) was 74.4%, the activity at 10 µM (NCI-H322M) was 71.7% and the activity at 10 µM (NCI-H460) was 30.6%. It also gave an activity at 10 µM (NCI-H522) of 27.3%, an activity at 10 µM (COLO 205) of -59.6% and an activity at 10 µM (HCC-2998) of -62.4%. It also gave an activity at 10 µM (HCT-116) of 24.1%, an activity at 10 µM (HCT-15) of 15.7% and an activity at 10 µM (HT29) of 1.44%. For the same compound, the activity at 10 µM (KM12) was 45.7%, the activity at 10 µM (SW-620) was 64.3% and the activity at 10 µM (SF-268) was 42.5%. The activity at 10 µM (SF-295) was 70.2%, the activity at 10 µM (SF-539) was 14.7% and the activity at 10 µM (SNB-19) was 49.1%. For the same compound, the activity at 10 µM (SNB-75) was -0.13%, the activity at 10 µM (LOX IMVI) was 5.04% and the activity at 10 µM (MALME-3M) was -97.2%. It also gave an activity at 10 µM (M14) of -77.9%, an activity at 10 µM (MDA-MB-435) of 38.7% and an activity at 10 µM (SK-MEL-2) of -26.1%. It also gave an activity at 10 µM (SK-MEL-28) of -45.3%, an activity at 10 µM (SK-MEL-5) of -98.3% and an activity at 10 µM (UACC-257) of -72.7%. For the same compound, the activity at 10 µM (IGROV1) was 25.1%, the activity at 10 µM (OVCAR-3) was 50.6% and the activity at 10 µM (OVCAR-4) was 33%. For the same compound, the activity at 10 µM (OVCAR-8) was 66%, the activity at 10 µM (786–0) was 31.4% and the activity at 10 µM (ACHN) was 33.7%. It also gave an activity at 10 µM (CAKI-1) of 5.13%, an activity at 10 µM (RXF 393) of -8.13% and an activity at 10 µM (SN12C) of 43.9%. It also gave an activity at 10 µM (DU-145) of 39.5%, an activity at 10 µM (MCF7) of 6.31% and an activity at 10 µM [1] of 20.4%.
`CC[C@]12C=CCN3CC[C@@]4(c5ccc(OC)cc5N(C)[C@H]4[C@@](O)(C(=O)OC)[C@@H]1OC(=O)CCCN1CCN(C(=O)c4ccco4)CC1)[C@@H]32` [Compound 26] gave an activity at 10 µM (CCRF-CEM) of 103%, an activity at 10 µM (HL-60(TB)) of 93.8% and an activity at 10 µM (K-562) of 76.7%. It also gave an activity at 10 µM (MOLT-4) of 77.3%, an activity at 10 µM (A549/ATCC) of 92.7% and an activity at 10 µM (EKVX) of 87.8%. For the same compound, the activity at 10 µM (NCI-H23) was 109%, the activity at 10 µM (NCI-H322M) was 108% and the activity at 10 µM (NCI-H460) was 112%. The activity at 10 µM (NCI-H522) was 91.6%, the activity at 10 µM (COLO 205) was 99.7% and the activity at 10 µM (HCC-2998) was 106%. For the same compound, the activity at 10 µM (HCT-116) was 104%, the activity at 10 µM (HCT-15) was 98.8% and the activity at 10 µM (HT29) was 103%. It also gave an activity at 10 µM (KM12) of 108%, an activity at 10 µM (SW-620) of 112% and an activity at 10 µM (SF-268) of 97.3%. The activity at 10 µM (SF-295) was 89.5%, the activity at 10 µM (SF-539) was 101% and the activity at 10 µM (SNB-19) was 94.4%. For the same compound, the activity at 10 µM (SNB-75) was 68.3%, the activity at 10 µM (LOX IMVI) was 96.6% and the activity at 10 µM (MALME-3M) was 102%. It also gave an activity at 10 µM (M14) of 101%, an activity at 10 µM (MDA-MB-435) of 104% and an activity at 10 µM (SK-MEL-2) of 109%. It also gave an activity at 10 µM (SK-MEL-28) of 105%, an activity at 10 µM (SK-MEL-5) of 75.6% and an activity at 10 µM (UACC-257) of 101%. The activity at 10 µM (IGROV1) was 109%, the activity at 10 µM (OVCAR-3) was 121% and the activity at 10 µM (OVCAR-4) was 94%. It also gave an activity at 10 µM (OVCAR-8) of 104%, an activity at 10 µM (786–0) of 94.2% and an activity at 10 µM (ACHN) of 103%. It also gave an activity at 10 µM (CAKI-1) of 79.8%, an activity at 10 µM (RXF 393) of 102% and an activity at 10 µM (SN12C) of 103%. It also gave an activity at 10 µM (DU-145) of 105%, an activity at 10 µM (MCF7) of 88.7% and an activity at 10 µM [1] of 96.8%.

From article PMC11277489, “Novel Piperazine Derivatives of Vindoline as Anticancer Agents” (International Journal of Molecular Sciences, 2024)
